# Laboratory results reported in paper PMC4045703 (Bioorganic & medicinal chemistry, 2014).
# Experiments:
# [1] = biological target: T1, Mtb-FtsZ (Mycobacterium tuberculosis, UniProt P9WN95); assay: Mtb-FtsZ polymerization inhibitory assay; assay type: biochemical; conditions: light scattering, Mtb-FtsZ 15 μM, GTP 100 μM
# [2] = biological target: T1, Mtb-FtsZ; assay: Transmission electron microscopy; assay type: biochemical; conditions: Mtb-FtsZ 5 μM, GTP 25 μM
# [3] = Cytotoxicity, MTT assay; assay type: cell-based; conditions: African green monkey, Vero cells
# [4] = test system: Mtb H37Rv; assay: MIC determination by microplate Alamar Blue assay; assay type: cell-based; conditions: Mycobacterium tuberculosis, read-out: MIC Mtb H37Rv
# T1 sequence (P9WN95 whole entry): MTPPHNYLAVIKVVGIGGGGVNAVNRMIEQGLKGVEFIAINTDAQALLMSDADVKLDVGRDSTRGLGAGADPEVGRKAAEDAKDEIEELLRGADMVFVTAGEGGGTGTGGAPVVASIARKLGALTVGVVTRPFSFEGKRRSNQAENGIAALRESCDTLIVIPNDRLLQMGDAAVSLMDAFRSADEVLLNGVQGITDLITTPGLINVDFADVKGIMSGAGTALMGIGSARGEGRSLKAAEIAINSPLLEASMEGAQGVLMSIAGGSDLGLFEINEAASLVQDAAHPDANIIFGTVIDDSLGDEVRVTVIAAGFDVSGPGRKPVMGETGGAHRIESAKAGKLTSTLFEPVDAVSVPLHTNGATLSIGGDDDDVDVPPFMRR
structure (smiles),measurement,setting,value
"CCCCOC(=O)Nc1cc2nc(C3CCCCC3)[nH]c2cc1Oc1ccc(F)cc1 [Compound 5a, 5-Butoxycarbonylamino-2-cyclohexyl-6-(4-fluorophenoxy)-1H-benzo[d]imidazole]",Inhibition of FtsZ polymerization,[1],inhibited FtsZ polymerization in a dose-dependent manner
same,Effect on FtsZ polymers in TEM,[2]; 5a 40 μM,"the length, density and aggregation was visibly reduced"
same,Effect on FtsZ polymers in TEM,[2]; 5a 80 μM,very short and dispersed FtsZ polymers were observed
"O=C(Nc1cc2nc(C3CCCCC3)[nH]c2cc1Oc1ccc(F)cc1)c1ccc(F)cc1F [Compound 5d, 2-Cyclohexyl-5-(2,4-difluorobenzamido)-6-(4-fluorophenoxy)-1H-benzo[d]imidazole]",Inhibition of FtsZ polymerization,[1],inhibited FtsZ polymerization in a dose-dependent manner
"Cc1ccc(C(=O)Nc2cc3nc(C4CCCCC4)[nH]c3cc2Sc2ccccc2)cc1 [Compound 5f, 2-Cyclohexyl-5-(4-methxylbenzamido)-6-(phenylthio)-1H-benzo[d]imidazole]",IC50 at 3 days,[3],> 200 µM
"CCCCSc1cc2[nH]c(C3CCCCC3)nc2cc1NC(=O)c1ccc(C)cc1 [Compound 5i, 6-(Butylthio)-5-(4-metylbenzamido)-2-cyclohexyl-1H-benzo[d]imidazole]",MIC,[4],1.25 µg/mL
